According to patent publication US5215979A, “16,17-acetalsubstituted pregnane 21-oic acid derivatives” (priority 1985, dated 1993):
Several values for one entry are separate records, joined by “and”; a condition that tells them apart may be missing. Identical values can stand only once. Like-named read-outs stand apart in the source and are kept apart here.

Tests used:
interstitial lung edema = experiment: Sephadex model in the rat: lung edema after Sephadex bead instillation, glucocorticosteroid instilled in left lung lobe; type: in vivo, Sprague-Dawley rats; settings: for ED50: Rattus norvegicus, read-out: ED50 left lung lobe (required glucocorticosteroid dose to reduce the edema by 50%); for Selectivity ratio ED50 right lung / ED50 left lung: instillation into left lung lobe, higher = more selective for application site
Source text: The selectivity for anti-inflammatory effect at the application site in the lung has been investigated in a model system in the rat after intrabronchial instillation of the glucocorticosteroid.
Instillation of Sephadex beads into rat lung leads to bronchial and alveolar inflammation. This provokes interstitial lung edema, which increases the lung weight and the inflammation can be graded as the increase of the lung weight compared to a vehicle-instilled control group. The lung edema formation can be counteracted by pretreatment with glucocorticosteroids, preferably the local administration as intrabronchial installation or as inhalation. Ideally, an anti-inflammatory action should be obtained only at the site of glucocorticosteroid application in the lung but not outside this area, as this in long term treatment can lead to therapy limiting systemic side effects.
(§1) The differentiation between glucocorticosteroid action in the treated lung region and outside this area has been tested by the following test protocol. Sprague-Dawley rats (225 g) were slightly anesthetized with ether and the glucocorticosteroid test preparation in a volume of 0.5 ml/kg was instilled into just the left lung lobe. […] Thirty minutes later, a suspension of Sephadex (5 mg/kg in a volume of 1 ml/kg) was instilled in the trachea well above the bifurcation so that the suspension reached both the left and right lung lobes. Twenty hours later the rats were killed and the left and right lung lobes were dissected out and weighed separately. Also the thymus weight was recorded. Control groups got vehicle instead of glucocorticosteroid preparation and saline instead of Sephadex suspension to determine the weight of non-drug protected Sephadex edema and the normal lung weight, respectively. For each glucocorticosteroid preparation at least 3 doses within the range 0.01-10 mg/kg and with each ≥6 parallels/dose were tested. The glucocorticosteroids were suspended in a vehicle of CMC-Na 0.75%, Tween 80 0.04%, and 0.7% NaCl ad 100%.
For a strict local anti-inflammatory treatment of airway diseases the ideal profile of a compound is that it should counteract the inflammation in the locally treated left lung lobe, but not in the right lung half, which is anticipated to be reached by glucocorticosteroid first via the systemic circulation (after absorption from the left lung). The ratio between the required ED50 's (doses reducing the edema by 50%) in the right and left lung halves, respectively, can be used as a parameter for estimation of the selective activity for the application site. For an ideal glucocorticosteroid this selectivity ratio should be high.

thymus = experiment: Thymus weight recorded in the Sephadex model (systemic effect); type: in vivo, Sprague-Dawley rats; settings: for Thymus involution % (dose mg/kg): relative to Sephadex control group
Method: as §1

[1] = cited from earlier work; for Plasma half life: after absorption of inhaled GCS; for Site of inactivation (in words): after absorption
[2] = in vivo; cited from earlier work
[3] = cited from earlier work; for Unwanted GCS actions within the general circulation (in words): highest of the recommended doses for inhalation; for Safety margin (in words): inhaled GCS, highest recommended doses for inhalation
[4] = compared with budesonide or BDP; cited from earlier work
[5] = intrabronchial instillation into left lung lobe 30 min before Sephadex, lungs weighed 20 h later

| Structure (SMILES) | ED50 (interstitial lung edema; [5]) [mg/kg] | Selectivity ratio ED50 right lung / ED50 left lung (interstitial lung edema) | Thymus involution % (dose mg/kg) (thymus; dose 10 mg/kg) [%] | other results |
| --- | --- | --- | --- | --- |
| CCCC1O[C@@H]2C[C@H]3[C@@H]4CCC5=CC(=O)C=C[C@]5(C)[C@H]4[C@@H](O)C[C@]3(C)[C@]2(C(=O)CO)O1 (some centres unmarked) [Budesonide] | 0.2 | ~ 1.5 and 1.4 | – | Selectivity for activity in the locally treated left lung lobe (in words) (interstitial lung edema; compared with budesonide and FCB): does not reach any selectivity for the application site in lung; Thymus involution % (dose mg/kg) (thymus; dose 0.3 mg/kg): 22%; Plasma half life [1]: ≥ 2 h; Site of inactivation (in words) [1]: inactivated mainly in the liver; Selectivity for the application within airways (in words) [2]: low selectivity; Unwanted GCS actions within the general circulation (in words) [3]: unwanted GCS actions within the general circulation have been reported; Safety margin (in words) [3]: rather narrow safety margin |
| CCC[C@@H]1O[C@@H]2C[C@H]3[C@@H]4C[C@H](F)C5=CC(=O)C=C[C@]5(C)[C@@]4(F)[C@@H](O)C[C@]3(C)[C@]2(C(=O)C(=O)OC)O1 [Example 1, methyl (22R)-16α,17α-butylidenedioxy-6α, 9α-difluoro-11β-hydroxy-3,20-dioxopregna-1,4-diene-21-oate] | 1.5 | 6.0 | -3 | Effect on thymus weight (in words) (thymus; dose 10 mg/kg): do not at all affect the thymus weight |
| CCC[C@@H]1O[C@@H]2C[C@H]3[C@@H]4C[C@H](F)C5=CC(=O)C=C[C@]5(C)[C@@]4(F)[C@@H](O)C[C@]3(C)[C@]2(C(=O)C(=O)OCC)O1 [Example 3, ethyl (22R)-16α,17α-butylidenedioxy-6α,9α-difluoro-11β-hydroxy-3, 20-dioxopregna-1,4-diene-21-oate] | 1.7 | 5.9 | 15 | – |
| CCCOC(=O)C(=O)[C@@]12O[C@H](CCC)O[C@@H]1C[C@H]1[C@@H]3C[C@H](F)C4=CC(=O)C=C[C@]4(C)[C@@]3(F)[C@@H](O)C[C@@]12C [Example 4, n-propyl (22R)-16α,17α-butylidenedioxy-6α,9α-difluoro-11β-hydroxy-3, 20-dioxopregna-1,4-diene-21-oate] | < 1 | > 10 | 6 | – |
| CCC[C@@H]1O[C@@H]2C[C@H]3[C@@H]4C[C@H](F)C5=CC(=O)C=C[C@]5(C)[C@@]4(F)[C@@H](O)C[C@]3(C)[C@]2(C(=O)C(=O)OC(C)C)O1 [Example 5, isopropyl (22R)-16α,17α-butylidenedioxy-6α,9α-difluoro-11β-hydroxy-3, 20-dioxopregna-1,4-diene-21-oate] | 5 | 10.0 | -1 | Effect on thymus weight (in words) (thymus; dose 10 mg/kg): do not at all affect the thymus weight |
| CCCCOC(=O)C(=O)[C@H]1[C@H](C)C[C@H]2[C@@H]3C[C@H](F)C4=CC(=O)C=C[C@]4(C)[C@H]3[C@@H](O)C[C@@]21C [FCB, fluocortin butyl ester] | – | 2-3 and 2.5 | 6 | ED50 (interstitial lung edema; 20 h): 10 mg/kg; Half life time in plasma (in words) ([1]; compared with budesonide): as long half life time in plasma as budesonide; Potency (in words) [4]: lower potency |
| CCC(=O)OCC(=O)[C@@]1(OC(=O)CC)[C@@H](C)C[C@H]2[C@@H]3CCC4=CC(=O)C=C[C@]4(C)[C@@]3(Cl)[C@@H](O)C[C@@]21C [beclomethasone 17α, 21-dipropionate] | – | – | – | Plasma half life [1]: ≥ 2 h; Site of inactivation (in words) [1]: inactivated mainly in the liver; Unwanted GCS actions within the general circulation (in words) [3]: unwanted GCS actions within the general circulation have been reported; Safety margin (in words) [3]: rather narrow safety margin |
